Several values for one entry are separate records, joined by “and”; a condition that tells them apart may be missing. Identical values can stand only once.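 Values below derive from 48-hour exposures of cells grown in 96-well plates, with endpoints linearly interpolated between the two concentrations bracketing the appropriate inhibition level. GI50 marks 50% less growth. Definition used: TGI = concentration required for complete inhibition of growth.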 Where only a bound is given, the exact number is not on record here.

This passage reports GI50 and TGI results from PubChem BioAssay (NCI).

Among the test systems are T-47D breast; A498 renal; SW-620 colon; NCI-H522 lung; IGROV1 ovarian; HOP-62 NSCLC; COLO 205 colon; NCI-H226 lung; SNB-19 CNS; HCT-15 colon.
What all share (assay): inhibition of tumour cell growth, NCI panel, 48 h

For the molecule `CCC1CCc2nc3sc(C(=O)Nc4ccccc4F)c(N)c3cc2C1` (stereo not drawn), the GI50 is over 100 µM with T-47D breast; 0.0575 µM with A498 renal; 0.819 µM in the experiment with SW-620 colon; 24.8 µM with NCI-H522 lung; over 100 µM in the experiment with IGROV1 ovarian; over 100 µM in the experiment with HOP-62 NSCLC. In addition, the GI50 was 7.4 µM with COLO 205 colon, over 100 µM in the experiment with NCI-H226 lung, 53.8 µM in the experiment on SNB-19 CNS and 0.401 µM in the experiment with HCT-15 colon. Also, the TGI in the experiment with T-47D breast is over 100 µM; in the experiment with A498 renal, 0.689 µM; with SW-620 colon, over 100 µM; in the experiment on NCI-H522 lung, over 100 µM; in the experiment with IGROV1 ovarian, over 100 µM; in the experiment on HOP-62 NSCLC it was over 100 µM. Moreover, the TGI with COLO 205 colon, in the experiment with NCI-H226 lung, in the experiment with SNB-19 CNS and with HCT-15 colon was over 100 µM throughout.

For the molecule `N=c1nc(N)c2cc3c(N)nc(=N)c3cc12`, the TGI with T-47D breast is 47.8 µM; in the experiment on A498 renal it was over 90.6 µM; in the experiment with SW-620 colon, 44 µM; in the experiment on NCI-H522 lung, 46.4 µM; in the experiment on IGROV1 ovarian it was over 100 µM; in the experiment with HOP-62 NSCLC it was 38.5 µM. The TGI in the experiment with COLO 205 colon was over 100 µM; in the experiment with NCI-H226 lung it was 44.7 µM; in the experiment with SNB-19 CNS, over 100 µM; with HCT-15 colon it was over 100 µM.

Regarding `CCCCCCN(CCCCCC)C(=N)c1ccnc2ccccc12`, the GI50 with T-47D breast was 3.04 µM; in the experiment on A498 renal, 3.07 µM; in the experiment with SW-620 colon, 3.27 µM; with NCI-H522 lung it was 2.55 µM; in the experiment with IGROV1 ovarian, 2.83 µM; with HOP-62 NSCLC, 10.8 µM. Also, the GI50 with COLO 205 colon is 1.45 µM; in the experiment with NCI-H226 lung, 11.8 µM; with SNB-19 CNS, 11 µM; with HCT-15 colon it was 3.82 µM. Also, the TGI in the experiment on T-47D breast amounted to 13.2 µM; in the experiment on A498 renal, 16.6 µM; with SW-620 colon, 17.8 µM; with NCI-H522 lung, 11 µM; in the experiment with IGROV1 ovarian, 13.4 µM; in the experiment with HOP-62 NSCLC, 24.2 µM. Further, the TGI with COLO 205 colon stood at 2.97 µM; in the experiment on NCI-H226 lung, 26.7 µM; in the experiment on SNB-19 CNS, 25.7 µM; in the experiment on HCT-15 colon, 16.6 µM.

For the molecule `Cc1cc(N(CCOS(C)(=O)=O)CCOS(C)(=O)=O)ccc1C=Nc1ccc(-c2csc(-c3ccccc3)n2)c(Cl)c1`, the TGI in the experiment with T-47D breast was over 85.2 µM; with A498 renal it was 4.67 µM; in the experiment on SW-620 colon, over 64.7 µM; with NCI-H522 lung, 3.02 µM; in the experiment with IGROV1 ovarian, 32.2 µM; in the experiment with HOP-62 NSCLC, 29.3 µM. Besides, the TGI is 10.2 µM in the experiment with COLO 205 colon, 45.2 µM in the experiment with NCI-H226 lung, over 61.1 µM in the experiment with SNB-19 CNS and 36.1 µM in the experiment on HCT-15 colon.

For `C=C(C)C(=O)NC(N)=NC#N`, the GI50 is 57.5 µM with T-47D breast; 201 µM with A498 renal; 41 µM in the experiment with SW-620 colon; 2.26 µM in the experiment with NCI-H522 lung; 168 µM with IGROV1 ovarian; 206 µM in the experiment with HOP-62 NSCLC. The results for the GI50 with COLO 205 colon and with HCT-15 colon were 80.5 µM and 103 µM, respectively. In addition, the TGI was 56.3 µM and 206 µM in the experiment on T-47D breast; > 46.4 µM and 345 µM in the experiment on A498 renal; 39.4 µM and 170 µM with SW-620 colon; 16.4 µM and 5.88 µM in the experiment with NCI-H522 lung; > 75.1 µM and 309 µM in the experiment with IGROV1 ovarian; 362 µM in the experiment with HOP-62 NSCLC. Moreover, the TGI in the experiment with COLO 205 colon is 206 µM; in the experiment with NCI-H226 lung, 330 µM; in the experiment with SNB-19 CNS it was 330 µM; with HCT-15 colon, 243 µM.

`CC[C@H](C)c1occ2c(O)c(C(=O)O)c(=O)cc-2c1C`: the TGI amounted to 56.4 µM in the experiment with T-47D breast; 93.5 µM in the experiment on A498 renal; 44.5 µM in the experiment on SW-620 colon; 30.7 µM in the experiment with NCI-H522 lung; 37.2 µM in the experiment with IGROV1 ovarian; 69.1 µM in the experiment with HOP-62 NSCLC. The TGI with COLO 205 colon was 36.8 µM; in the experiment on NCI-H226 lung, over 100 µM; in the experiment with SNB-19 CNS, over 100 µM; in the experiment on HCT-15 colon, 32.1 µM.

`COc1cccc(-c2nn(-c3ccccc3)cc2-c2ccnc(NCCNS(=O)(=O)c3ccc(C(F)(F)F)cc3)c2)c1`: the GI50 was 2.36 µM in the experiment on T-47D breast; 1.66 µM in the experiment on A498 renal; 4.16 µM in the experiment on SW-620 colon; 2.33 µM in the experiment with NCI-H522 lung; 4.19 µM in the experiment with IGROV1 ovarian; 4.16 µM in the experiment on HOP-62 NSCLC. In addition, the GI50 was 1.87 µM in the experiment on COLO 205 colon, 5.77 µM in the experiment on NCI-H226 lung, 4.62 µM in the experiment on SNB-19 CNS and 3.04 µM in the experiment on HCT-15 colon. The TGI in the experiment with T-47D breast was 7.55 µM; with A498 renal, 6.5 µM; in the experiment with SW-620 colon, over 100 µM; in the experiment on NCI-H522 lung, 12.5 µM; in the experiment on IGROV1 ovarian, over 100 µM; with HOP-62 NSCLC, 43.6 µM. The TGI in the experiment with COLO 205 colon was 3.57 µM; in the experiment on NCI-H226 lung, over 100 µM; in the experiment with SNB-19 CNS, over 100 µM; with HCT-15 colon, over 100 µM.

As for `Cc1cc(Cl)ccc1Nc1sc(C(=O)c2cc3cc(Cl)ccc3o2)c(N)c1C#N`, the TGI with T-47D breast was over 100 µM; with A498 renal, 19.2 µM; with SW-620 colon, over 69.9 µM; in the experiment with NCI-H522 lung, 21.9 µM; in the experiment on IGROV1 ovarian, over 100 µM; with HOP-62 NSCLC, over 37.6 µM. The TGI in the experiment on COLO 205 colon was over 100 µM; in the experiment with NCI-H226 lung it was over 100 µM; in the experiment with SNB-19 CNS, 25.1 µM; in the experiment on HCT-15 colon it was over 100 µM.

For the molecule `O=C(OC(C(=O)O)C(OC(=O)c1ccccc1)C(=O)O)c1ccccc1` (stereo not drawn) (tested in a mixture with another compound), the TGI in the experiment on T-47D breast is over 100 µM; in the experiment on A498 renal, over 100 µM; with SW-620 colon it was over 100 µM; in the experiment with NCI-H522 lung it was 55.4 µM; in the experiment with IGROV1 ovarian, over 100 µM; in the experiment on HOP-62 NSCLC, over 100 µM. The TGI is > 100 µM and 16.6 µM with COLO 205 colon; over 100 µM in the experiment with NCI-H226 lung; over 100 µM in the experiment on SNB-19 CNS; over 100 µM with HCT-15 colon.

For the molecule `O=C1C2CC3C(CC2C(=O)[N]1[Sn]([c]1ccccc1)([c]1ccccc1)[c]1ccccc1)C1(Cl)C(Cl)=C(Cl)C3(Cl)C1(Cl)Cl` (stereo not drawn), the GI50 in the experiment on T-47D breast was 0.0393 µM; in the experiment on A498 renal, 0.12 µM; in the experiment with SW-620 colon, 0.0636 µM; with NCI-H522 lung, 0.0924 µM; in the experiment on IGROV1 ovarian, 0.115 µM; with HOP-62 NSCLC it was 0.192 µM. Moreover, the GI50 is 0.152 µM in the experiment with COLO 205 colon, 0.184 µM in the experiment on NCI-H226 lung, 0.163 µM in the experiment with SNB-19 CNS and 0.054 µM in the experiment on HCT-15 colon. For the same molecule, the TGI in the experiment with T-47D breast was found to be 0.22 µM; in the experiment on A498 renal, 0.276 µM; with SW-620 colon, 0.216 µM; with NCI-H522 lung, 0.226 µM; with IGROV1 ovarian, 0.334 µM; in the experiment on HOP-62 NSCLC, 0.427 µM. The TGI was 0.33 µM in the experiment on COLO 205 colon, 0.437 µM in the experiment on NCI-H226 lung, 0.344 µM in the experiment with SNB-19 CNS and 0.209 µM with HCT-15 colon.
